US4419364A, “Bronchospasmolytic carbamate derivatives” (priority 1980, dated 1983)
Where “and” joins values, the source holds several entries; their conditions need not be identical. Equal entries are not always repeated. Entries after “also recorded” stand apart in the source; their conditions may differ. Structures can show the parent of a compound that is named as a salt. Where two headings read alike, the source gives them in different places.

What was measured:
heart rate in dogs = test: In vivo test on the effect on the heart rate in dogs; design: species or system dogs (Beagle, male); conditions: oral; for Slope of the line of increase in heart rate vs. logarithm of corresponding serum conc.: serum conc. of terbutaline; for Slope of the line of increase in heart rate vs. logarithm of corresponding serum conc. / Correlation coefficient (increase in heart rate vs. logarithm of serum conc.): terbutaline 0.01-0.1 mg/kg, test compound 0.3-3 mg/kg
Experimental: (§1) Five dogs (Beagle, .male., 13-18 kg) have been used repeatedly in the study. Each dog was used at most once a week. Food was withheld from the animals the night before the experiment (water ad libitum). The test compound was solved in 8 ml of distilled water, and delivered into the back of the mouth by use of a syringe and a short tube. This oral supply was followed by a water rinse of 8 ml.
(§2) The blood was collected from the cephalic veins in the forelegs by use of evacuated tubes. The esterase inhibitor diisopropylfluophosphate (DFP) was added, the samples centrifugated (+5°) and the amount of terbutaline in plasma determined by a massfragmentographic analysis method. The serum level of terbutaline indicates the degree of bronchospasmolytic effect of the test compounds.
(§3) The amounts of the test substances to be administered were selected so that the level of terbutaline, when administered per se, corresponds to the serum levels obtained and found effective in patients at clinical use, that is a level of terbutaline of at least 2 ng/ml serum for 6 to 8 hours. The doses of the test substances of the invention were selected so that the serum levels of terbutaline obtained would correspond approximately with the serum levels obtained after administration of terbutaline per se.
The heart rate was determined by a stethoscope (the mean of three determinations during a 5-minute periode) before the administration of drug and before each blood sampling.
The relative effect of the test compounds on the heart rate of the test animals was illustrated by plotting in a diagram the increase in heart rate measured at a certain serum concentration of terbutaline versus the logarithm of the said terbutaline concentration in serum. Only values before and up to the maximal increase in heart rate were used. This method will produce a graph consisting of a substantially straight line. When such a line is drawn from each test compound, it can be seen from the slope of the line how the heart rate is correlated to the serum concentration of the test compound.

[1] = In vitro test on isolated guinea-pig auricles (chronotropic and inotropic effect); design: species or system guinea-pig (Dunkin Hartley, male); conditions: guinea pig, isolated auricles; relative values; eserine 1·10^-6 mol/l; read-out: Chronotropic effect on isolated auricle (relative values)
Experimental: (§4) Male guinea-pigs strain Dunkin Hartley (400-500 g) were used. After bleeding and removal of the heart the auricles were dissected free from the ventricular part and submerged into carbogen aerated Krebs solution of 37°. The frequency and force of the spontaneously beating preparation was recorded by a Grass transducer FT03. In the polygraph (Grass 7D) the signals from the isometric transducer passed a trigger function from the drive amplifier to the tachograph to record the rate.
(§5) The esterase inhibitor eserine was added to a concentration of 1·10^-6 mol/l in the organ bath before the drugs to be tested were added. The intrinsic activity of the test compounds on the heart preparation, that is their effect on heart rate (chronotropic effect) and their effect on the force of the heart beats (inotropic effect), and their possible interaction with terbutaline was studied.

[2] = test system: isolated auricles from guinea-pig heart; test: as above; design: species or system guinea-pig (Dunkin Hartley, male)
Experimental: as §4, §5

[3] = test system: isolated tracheal muscle from guinea-pig; test: In vitro test on isolated guinea-pig trachea (relaxation of pilocarpine-contracted trachea); conditions: for EC50: Cavia porcellus, pilocarpine-contracted, eserine 1·10^-6 mol/l, read-out: Concentration of test substance producing 50% relaxation of the trachea (EC50)
Experimental: The trachea from guinea-pigs was dissected out, cut spirally and transferred to a 10 ml organ bath containing Krebs solution of 37° and aerated with carbogen. The tracheal strip was contracted by pilocarpine (4·10^-6 mol/l) producing a tension of about 1.5 g. Isometric recording was made by use of a transducer FT03 and Grass polygraph 7D. Before the administration of the test compound the esterase inhibitor eserin was added to the bath in a concentration of 1·10^-6 mol/l. The concentration of the test substances which produces 50% relaxation (EC50) of the pilocarpine contracted trachea was recorded as well as potentiating or inhibiting influence of the test substances of the invention on the relaxing effect of terbutaline. In this last mentioned test the muscle preparation was pretreated with the test compounds during 5 minutes, before the response of terbutaline was recorded.

[4] = Duration of serum levels of terbutaline after oral administration of test compounds to unanaesthetized dogs; assay type: in vivo, dogs (Beagle, male); conditions: for concentration at 1 h: 1 hour after administration; for concentration at 2 h: 2 hours after administration; for concentration at 3 h: 3 hours after administration; for concentration at 4 h: 4 hours after administration; for concentration at 6 h: 6 hours after administration
Experimental: as §1, with “dissolved” for “solved”
as §2, with “diisopropylfluophoshate” for “diisopropylfluophosphate”
as §3, with “terbutaline” for “terbutaline, when administered per se,”
The test results are given in Table 1 below, where the time course of the serum level of terbutaline in the test animals is given. Each set of serum levels is the result of test in one dog. The boxed time interval represents the interval where a clinically effective serum level of terbutaline is obtained. Thus, the boxed interval represents the clinically useful duration of the test compounds.

[5] = test system: histamine-induced bronchospasm in unanaesthetized guinea-pigs; test: Protecting effect against histamine-induced bronchospasm after oral administration in guinea-pigs; assay type: in vivo, guinea-pigs (Dunkin-Hartley, male); conditions: for ED50: Cavia porcellus, 0.05 h, histamine aerosol, read-out: Dose protecting 50% of the test animals for more than 3 minutes (ED50)
Experimental: Male guinea-pigs, Dunkin-Hartley strain, 150-200 g, were used in the study. The animals were starved for about 15 hours (water ad libitum) before the administration, by a stomach tube, of test compound or vehicle (controls). To establish an adequate time period between administration and histamine exposure, the maximum plasma level of terbutaline produced from the hydrolysis of the given pro-drugs of terbutaline was determined. Thus, blood samples (in pre-experimental series) were collected from guinea-pigs at different times after the administration of the test compound and the plasma level of tarbutaline was determined by a massfragmentographic analysis. A peak in the plasma turbutaline was noted 50-60 minutes after the administration, and this time was selected as time for start of histamine exposure.
The histamine aerosol was generated by Bird inline nebulizers from a solution containing 0.02% histamine-HCl and 3% glycerole. The protecting effect was estimated from the delay in appearance of signs of anoxia in drug-treated animals. […] Drug-treated guinea-pigs without any signs of respiratory influence from the histamine during these first 3 minutes were denoted as protected.

[6] = cited from earlier work; for Duration of bronchospasmolytic activity, in words: relative to a marketed comparator
[7] = dog, serum, po, 0.03 mg/kg, read-out: Serum level of terbutaline
[8] = dog, serum, po, 0.1 mg/kg, read-out: Serum level of terbutaline

Q: For `CN(C)C(=O)Oc1cc(OC(=O)N(C)C)cc(C(O)CNC(C)(C)C)c1` (stereo not shown) [I, 1-[bis-(3',5'-N,N-dimethylcarbamoyloxy)phenyl]-2-N-tert.butylaminoethanol hydrochloride], which “Increase in heart rate relative to terbutaline, in words” value (heart rate in dogs; hydrochloride) is on record?
A: relatively much lower increase in heart rate than the reference compound terbutaline; also recorded: considerably reduced stimulating effect on the heart rate compared with the heart rate stimulating effect of terbutaline

Q: And the “Slope of the line of increase in heart rate vs. logarithm of corresponding serum conc.” value (heart rate in dogs)?
A: 0.63

Q: And the “Correlation coefficient (increase in heart rate vs. logarithm of serum conc.)” value (heart rate in dogs)?
A: 0.9324

Q: And the Emax [1]?
A: 0%

Q: And the “Chronotropic or inotropic effect, in words” value ([2]; isolated guinea-pig auricles)?
A: did not show any chronotropic or inotropic effect

Q: What about the “Potentiating or inhibiting effect on the chronotropic and inotropic effect of terbutaline” value ([2]; test compound in same concentration as terbutaline) of the same molecule?
A: No potentiating or inhibiting effect

Q: What about the “Potentiating or inhibiting effect of the test substance on the bronchodilating effect of terbutaline” value ([3]; 5 minutes pretreatment, hydrochloride) of the same molecule?
A: none and No potentiating or inhibiting activity

Q: What about the EC50 [3] of the same molecule?
A: > 20000 nM

Q: What about the “Bronchodilating effect (intrinsic), in words” value ([3]; isolated guinea-pig trachea, hydrochloride) of the same molecule?
A: did not produce any bronchodilating effect; also recorded: did not exert any intrinsic bronchodilating effect

Q: And the “Duration of terbutaline serum level of 2 ng/ml or more” value ([4]; p.o., dogs)?
A: ≥ 16 h

Q: And the “Duration of clinically useful serum level relative to terbutaline” value ([4]; p.o., dogs, terbutaline 2 ng/ml serum or higher)?
A: at least twice as long

Q: What about the ED50 [5] of the same molecule?
A: 2.7 mg/kg and 6.7 µmol/kg

Q: What about the “Bronchospasmolytic potency relative to terbutaline” value ([5]; on molar basis, in words) of the same molecule?
A: less potent than the reference substance terbutaline

Q: With `Cc1ccc(C(=O)Oc2ccc(C(O)CNC(C)(C)C)cc2OC(=O)c2ccc(C)cc2)cc1` (stereo not shown) [bitolterol] as the molecule, how does the “Duration of bronchospasmolytic activity, in words” value [6] read?
A: comparable with that of salbutamol

Q: For `CC(C)(C)NCC(O)c1ccc(O)c(CO)c1` (stereo not drawn) [salbutamol, α-(tert.)-butylaminomethyl-4-hydroxy-m-xylene-α-diolsulphate], which “Duration of bronchospasmolytic activity, in words” value [6] is on record?
A: about equal to the duration of terbutaline

Q: Which “Slope of the line of increase in heart rate vs. logarithm of corresponding serum conc.” value (heart rate in dogs) does the source give for `CC(C)(C)NCC(O)c1cc(O)cc(O)c1` (stereo not shown) [terbutaline, 1-(3',5'-dihydroxyphenyl)-2-t-butylaminoethanol sulphate] here?
A: 1.04

Q: And the “Correlation coefficient (increase in heart rate vs. logarithm of serum conc.)” value (heart rate in dogs)?
A: 0.9598

Q: And the Emax [1]?
A: 100%

Q: And the “Inotropic effect on isolated auricle (relative values)” value ([2]; relative values, eserine 1·10^-6 mol/l)?
A: 1.0

Q: What about the “Serum concentration of terbutaline necessary for desired therapeutic activity” value ([6]; Hornblad et al. (1976)) of the same molecule?
A: at least 2 ng/ml

Q: And the “Duration of terbutaline serum level at clinical use” value ([6]; normally obtained at clinical use of terbutaline, 2 ng/ml)?
A: about 8 hours

Q: And the EC50 [3]?
A: 210 ± 50 nM

Q: And the concentration at 1 h [4, 7]?
A: 4.8 ng/mL

Q: And the concentration at 2 h [4, 7]?
A: 2.9 ng/mL

Q: And the concentration at 3 h [4, 7]?
A: 2.4 ng/mL

Q: What about the concentration at 4 h [4, 7] of the same molecule?
A: 2.2 ng/mL

Q: And the concentration at 6 h [4, 7]?
A: 1.9 ng/mL

Q: And the concentration at 1 h [4, 8]?
A: 5.7 ng/mL

Q: And the concentration at 2 h [4, 8]?
A: 13.7 ng/mL

Q: What about the concentration at 3 h [4, 8] of the same molecule?
A: 9.2 ng/mL

Q: And the concentration at 4 h [4, 8]?
A: 6.1 ng/mL

Q: And the concentration at 6 h [4, 8]?
A: 3.4 ng/mL

Q: What about the concentration at 8 h ([4]; dog, serum, po, 0.1 mg/kg, 8 hours after administration, read-out: Serum level of terbutaline) of the same molecule?
A: 2.2 ng/mL

Q: And the concentration at 12 h ([4]; dog, serum, po, 0.1 mg/kg, 12 hours after administration, read-out: Serum level of terbutaline)?
A: 1.1 ng/mL

Q: And the concentration at 16 h ([4]; dog, serum, po, 0.1 mg/kg, 16 hours after administration, read-out: Serum level of terbutaline)?
A: 0.8 ng/mL

Q: What about the concentration at 24 h ([4]; dog, serum, po, 0.1 mg/kg, 24 hours after administration, read-out: Serum level of terbutaline) of the same molecule?
A: 0.35 ng/mL

Q: What about the ED50 [5] of the same molecule?
A: 0.4 mg/kg and 1.5 µmol/kg
